Literature values, collected in patent publication US4215038A, “Peptides which inhibit gonadal function” (The Salk Institute for Biological Studies, priority 1978, dated 1980).
Non-standard residues stand in square brackets, D forms with d. pGlu = O=C1CC[C@@H](C(=O)O)N1

System: release of gonadotropins
Conditions: compared with the 6-Gly peptide

[pGlu]WSY[dA]LRPG-NH2
potency as an inhibitor for the release of gonadotropins relative to the same peptide with Gly in the 6-position: 3 times
